# Source: US20110311533A1 (priority 2010, published 2011)
# Target: PrP (Mus musculus, UniProt P04925)
# Format: cell-based
# Chain of PrP (P04925 23-230 limits assumed): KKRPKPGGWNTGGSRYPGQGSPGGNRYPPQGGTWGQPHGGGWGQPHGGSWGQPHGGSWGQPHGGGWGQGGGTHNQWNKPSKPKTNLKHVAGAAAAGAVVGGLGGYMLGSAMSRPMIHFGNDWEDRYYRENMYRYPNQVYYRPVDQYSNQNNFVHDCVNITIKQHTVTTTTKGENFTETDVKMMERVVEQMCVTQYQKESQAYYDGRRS
substance,measurement,value
Tunicamycin,PrP glycoform pattern,accumulate the non-glycosilated specie of PrP
